According to patent US8575097B2, “Exendin variant and conjugate thereof” (Pegbio Co., Ltd., priority 2009, dated 2013):

Assay: Effect on body weight of guinea pigs (Example 23)
Type: in vivo, guinea pig
Details: 4 days after two successive dosing, 100 μg/kg s.c. (albumin 80 mg/kg), compared with saline group
Description: 44 male healthy guinea pigs were provided, and the body weight of each guinea pig was about 300 g.

## chicken ovalbumin [chicken ovalbumin, albumin group in the guinea pig allergy test]
  decrease of body weight: did not decrease
